The text below walks through data of ChEMBL document CHEMBL1130817, “Sulfonamide derivatives of benzylamine block cholesterol biosynthesis in HepG2 cells: a new type of potent squalene epoxidase inhibitors” (Bioorg Med Chem Lett, 1998).

The target in one assay is Squalene monooxygenase (Homo sapiens, UniProt Q14534). In words: In vitro inhibition of cholesterol biosynthesis in human HepG2 cells. The assay is classed as functional, cell-based.
Chain of Squalene monooxygenase (Homo sapiens, UniProt Q14534) (Q14534 whole entry): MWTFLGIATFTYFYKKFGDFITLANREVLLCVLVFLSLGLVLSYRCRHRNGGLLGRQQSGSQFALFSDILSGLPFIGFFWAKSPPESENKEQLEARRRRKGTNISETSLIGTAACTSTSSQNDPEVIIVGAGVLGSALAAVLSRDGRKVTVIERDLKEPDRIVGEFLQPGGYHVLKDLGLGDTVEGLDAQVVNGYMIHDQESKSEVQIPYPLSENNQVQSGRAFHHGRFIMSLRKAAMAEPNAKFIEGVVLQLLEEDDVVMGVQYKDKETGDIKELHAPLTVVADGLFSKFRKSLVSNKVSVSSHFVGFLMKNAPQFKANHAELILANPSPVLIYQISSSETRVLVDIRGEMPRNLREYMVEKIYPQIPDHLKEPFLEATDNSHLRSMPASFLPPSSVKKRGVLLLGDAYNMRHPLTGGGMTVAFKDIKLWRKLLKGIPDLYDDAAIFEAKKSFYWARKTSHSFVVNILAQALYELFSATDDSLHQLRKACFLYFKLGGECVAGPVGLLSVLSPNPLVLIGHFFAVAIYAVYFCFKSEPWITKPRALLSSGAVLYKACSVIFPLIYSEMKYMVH
As for `CCN(C/C=C/C#CC(C)(C)C)Cc1cccc(OCCN(C)S(=O)(=O)c2ccc(Br)s2)c1`, the IC50 was 390 nM.

Consider `CCN(C/C=C/C#CC(C)(C)C)Cc1cccc(OCCN(C2CC2)S(=O)(=O)c2cccs2)c1`, for which the IC50 came out at 230 nM.

In the case of `CCN(C/C=C/C#CC(C)(C)C)Cc1cccc(OCCN(C)S(=O)(=O)Cc2cccs2)c1`, 200 nM corresponded to half-maximal inhibition (IC50). The IC50 values of the last two compounds are within 1.5-fold of each other.

For the compound `CCN(C/C=C/C#CC(C)(C)C)Cc1cccc(OCCN(C)S(=O)(=O)c2ccc(-c3ccsc3)s2)c1`, half-maximal inhibition (IC50) was put at 210 nM.

`CCN(C/C=C/C#CC(C)(C)C)Cc1cccc(OCCN(C)S(=O)(=O)c2cccnc2)c1`: half-maximal inhibition (IC50) was put at 150 nM.

`CCN(C/C=C/C#CC(C)(C)C)Cc1cccc(OCCN(C)S(=O)(=O)c2ccc(C#N)cc2)c1` came in with an IC50 of 200 nM.

As to `CCCN(CCOc1cccc(CN(CC)C/C=C/C#CC(C)(C)C)c1)S(=O)(=O)c1cccs1`, the IC50 amounted to 170 nM.

`CCN(C/C=C/C#CC(C)(C)C)Cc1cccc(OCCN(CC)S(=O)(=O)c2cccs2)c1` showed an IC50 of 90 nM. Against the preceding compound, the IC50 is about 1.9-fold lower.

As for `CCN(C/C=C/C#CC(C)(C)C)Cc1cccc(OCCN(C)S(=O)(=O)c2ccc(-c3cccs3)s2)c1`, 10000 nM corresponded to half-maximal inhibition (IC50).

Compound `CCN(C/C=C/C#CC(C)(C)C)Cc1cccc(OCCN(C)S(=O)(=O)c2ccc(F)cc2)c1` returned an IC50 of 255 nM.

`CCN(C/C=C/C#CC(C)(C)C)Cc1cccc(OCCCS(=O)(=O)c2cccs2)c1`: 290 nM corresponded to half-maximal inhibition (IC50).

Regarding `CCN(C/C=C/C#CC(C)(C)C)Cc1cccc(OCCN(C)S(=O)(=O)c2cc3ccccc3s2)c1`, the IC50 is 1800 nM.

Compound `CCN(C/C=C/C#CC(C)(C)C)Cc1cccc(OCCN(C)S(=O)(=O)c2nccs2)c1` came in with an IC50 of 170 nM.

`CCN(C/C=C/C#CC(C)(C)C)Cc1cccc(OCCCN(C)S(=O)(=O)c2cccs2)c1` displayed an IC50 of 6400 nM. Against the preceding compound, the IC50 is about 38-fold higher.

As to `CCN(C/C=C/C#CC(C)(C)C)Cc1cccc(OCCN(C)S(=O)(=O)c2cc(Br)cs2)c1`, 300 nM corresponded to half-maximal inhibition (IC50). This IC50 lies about 21-fold lower than the previous one.

For the compound `CCN(C/C=C/C#CC(C)(C)C)Cc1cccc(OCCN(C)S(=O)(=O)c2cccs2)c1`, half-maximal inhibition (IC50) was put at 60 nM.

For `CCN(C/C=C/C#CC(C)(C)C)Cc1cccc(OCCN(C)S(=O)(=O)c2ccsc2)c1`, the IC50 was found to be 250 nM. This IC50 lies about 4.2-fold higher than the previous one.

For `CCN(C/C=C/C#CC(C)(C)C)Cc1cccc(OCCN(C)S(=O)(=O)c2cc(-c3ccsc3)cs2)c1`, the IC50 stood at 90 nM.

With `CCN(C/C=C/C#CC(C)(C)C)Cc1cccc(OCCN(C)S(=O)(=O)c2ccc(Br)cc2)c1`, it took 330 nM to reach half-maximal inhibition (IC50).

Compound `CCN(C/C=C/C#CC(C)(C)C)Cc1cccc(OCCNS(=O)(=O)c2cccs2)c1` gave an IC50 of 450 nM. The IC50 values of the last two compounds are within 1.5-fold of each other.

The next assay deals with Squalene monooxygenase (Rattus norvegicus) (UniProt P52020). As to the kind of experiment: Compound was evaluated in vivo for the inhibition of rat mammalian squalene epoxidase […]. The assay is classed as organism-based.
Chain of Squalene monooxygenase (Rattus norvegicus) (P52020 whole entry, looked up): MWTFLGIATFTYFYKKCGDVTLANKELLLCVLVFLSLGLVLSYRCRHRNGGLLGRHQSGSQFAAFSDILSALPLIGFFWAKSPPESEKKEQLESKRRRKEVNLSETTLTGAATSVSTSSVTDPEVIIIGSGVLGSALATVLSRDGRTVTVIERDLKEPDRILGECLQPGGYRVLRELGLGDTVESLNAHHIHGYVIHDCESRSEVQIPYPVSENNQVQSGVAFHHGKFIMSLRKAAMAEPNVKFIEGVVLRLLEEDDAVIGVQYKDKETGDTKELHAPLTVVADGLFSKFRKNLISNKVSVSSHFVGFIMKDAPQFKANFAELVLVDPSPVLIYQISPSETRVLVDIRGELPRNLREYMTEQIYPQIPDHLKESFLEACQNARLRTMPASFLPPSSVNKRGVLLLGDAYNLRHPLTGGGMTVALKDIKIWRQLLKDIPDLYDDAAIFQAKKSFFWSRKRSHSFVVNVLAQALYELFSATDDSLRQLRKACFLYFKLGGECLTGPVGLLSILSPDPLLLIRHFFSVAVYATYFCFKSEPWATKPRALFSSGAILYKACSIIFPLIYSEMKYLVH
`CCN(C/C=C/C#CC(C)(C)C)Cc1cccc(OCc2cc(-c3ccsc3)cs2)c1` gave an ED50 of 2.5 mg/kg.

For a further assay the target is unchanged. As to the kind of experiment: Compound was evaluated in vivo for the inhibition of rat squalene epoxidase […]; Inactive. The assay is classed as organism-based.
Consider `CCN(C/C=C/C#CC(C)(C)C)Cc1cccc(OCCN(C)S(=O)(=O)c2cccs2)c1`, for which the ED50 was 40 mg/kg.

The target of another assay is Squalene monooxygenase (Rattus norvegicus, UniProt P52020). In words: In vitro inhibition of rat liver squalene epoxidase […]. The format is cell-based.
Chain of Squalene monooxygenase (Rattus norvegicus, UniProt P52020) (P52020 whole entry): as the sequence (P52020 whole entry, looked up) above
`CCN(C/C=C/C#CC(C)(C)C)Cc1cccc(OCCN(C)S(=O)(=O)c2cccs2)c1`: the IC50 worked out at 6000 nM.

The IC50 is the point on the concentration scale where inhibition reaches its midpoint. A higher IC50 goes with lower potency. For orientation: ED50 means the dose that gives a 50% effect, or the effect in half of the subjects. A lower ED50 goes with greater potency.
